We go through two compounds from patent EP2687213B1, “Solid forms comprising (+)-2-[1-(3-ethoxy-4-methoxyphenyl)-2-methylsulfonylethyl]-4-acetylaminoisoindoline-1,3-dione, compositions thereof, and uses thereof” (CELGENE CORPORATION, priority 2008, dated 2009).

What all share (assay type): biochemical
Common to all, as to conditions: from PDE inhibition data of Table 1

Test [1] concerns the target PDE3 from human platelets (Homo sapiens, UniProt Q14432). The experiment in a line: PDE3 enzyme assay.
The target in test [2] is PDE5 from human platelets (Homo sapiens, UniProt O76074). The experiment in a line: PDE5 enzyme assay.
Test [3] deals with bovine PDE1. The experiment in a line: PDE1 enzyme assay.
The target in test [4] is PDE7 purified from Hut78 human T cells (Homo sapiens, UniProt Q13946). The test is described as follows: PDE7 enzyme assay. On the procedure: PDE7 is a cAMP-selective PDE expressed mainly in T cells and in skeletal muscle. T cell-derived cytokines such as IL-2 and IFN-γ are potentially regulatable via PDE7 inhibition. […] Compounds were tested against the PDE7 preparation in the presence of 10 nM cAMP as described for PDE4 in Table 1.

The target of test [5] is human PDE2 (Homo sapiens, UniProt O00408). The test is described as follows: PDE2 enzyme assay.
For test [6], the target named is T1, PDE6 from bovine retinal rod outer segments (Bos taurus, UniProt P11541+P23439).
T1 construct: PDE6 from bovine retinal rod outer segments; from tissue; host or cells: bovine retinal rod outer segments
T1 sequence (P11541 2-856 limits assumed): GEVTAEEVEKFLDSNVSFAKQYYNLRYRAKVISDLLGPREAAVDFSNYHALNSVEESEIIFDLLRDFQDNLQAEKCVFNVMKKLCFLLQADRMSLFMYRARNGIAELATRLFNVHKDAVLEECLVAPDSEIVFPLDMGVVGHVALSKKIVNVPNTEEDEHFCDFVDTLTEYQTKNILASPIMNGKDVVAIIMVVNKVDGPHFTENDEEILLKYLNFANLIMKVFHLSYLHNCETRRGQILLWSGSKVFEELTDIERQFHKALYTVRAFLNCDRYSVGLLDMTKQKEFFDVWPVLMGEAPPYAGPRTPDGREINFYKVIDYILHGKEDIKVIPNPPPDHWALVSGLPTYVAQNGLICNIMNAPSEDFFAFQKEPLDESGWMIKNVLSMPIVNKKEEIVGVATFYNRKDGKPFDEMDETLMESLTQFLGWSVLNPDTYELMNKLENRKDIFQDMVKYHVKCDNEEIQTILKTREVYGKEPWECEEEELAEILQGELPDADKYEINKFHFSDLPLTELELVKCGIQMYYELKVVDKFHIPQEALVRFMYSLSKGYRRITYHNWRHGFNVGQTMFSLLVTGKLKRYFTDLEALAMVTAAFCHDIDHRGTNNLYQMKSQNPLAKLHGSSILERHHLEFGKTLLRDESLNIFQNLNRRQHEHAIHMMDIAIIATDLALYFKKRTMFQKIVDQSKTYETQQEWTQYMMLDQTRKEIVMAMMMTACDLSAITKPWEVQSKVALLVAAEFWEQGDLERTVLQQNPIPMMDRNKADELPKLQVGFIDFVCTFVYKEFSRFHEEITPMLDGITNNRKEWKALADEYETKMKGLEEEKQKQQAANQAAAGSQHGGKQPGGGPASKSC
T1 sequence (P23439 2-850 limits assumed): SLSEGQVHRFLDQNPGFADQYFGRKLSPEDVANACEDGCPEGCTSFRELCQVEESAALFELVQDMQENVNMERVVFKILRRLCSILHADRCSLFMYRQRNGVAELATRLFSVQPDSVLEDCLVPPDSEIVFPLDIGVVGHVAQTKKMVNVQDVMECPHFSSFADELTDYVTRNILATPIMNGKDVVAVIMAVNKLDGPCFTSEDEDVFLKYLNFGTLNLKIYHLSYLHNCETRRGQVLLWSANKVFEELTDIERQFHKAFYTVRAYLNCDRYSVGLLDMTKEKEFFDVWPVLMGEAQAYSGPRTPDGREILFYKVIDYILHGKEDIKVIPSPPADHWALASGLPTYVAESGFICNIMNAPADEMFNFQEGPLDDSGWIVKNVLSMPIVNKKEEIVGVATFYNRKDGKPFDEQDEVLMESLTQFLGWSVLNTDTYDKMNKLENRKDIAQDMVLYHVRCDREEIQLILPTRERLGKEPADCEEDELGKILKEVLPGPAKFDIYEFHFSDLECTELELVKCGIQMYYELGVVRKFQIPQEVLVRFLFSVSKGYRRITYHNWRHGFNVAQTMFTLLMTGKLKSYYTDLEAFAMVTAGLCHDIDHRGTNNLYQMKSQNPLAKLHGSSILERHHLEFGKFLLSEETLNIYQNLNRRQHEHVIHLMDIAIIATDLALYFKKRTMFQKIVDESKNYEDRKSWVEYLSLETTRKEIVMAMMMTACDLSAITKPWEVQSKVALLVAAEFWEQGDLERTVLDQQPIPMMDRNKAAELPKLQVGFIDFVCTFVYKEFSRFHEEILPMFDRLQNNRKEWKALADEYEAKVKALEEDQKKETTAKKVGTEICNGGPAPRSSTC
The test is described as follows: PDE6 enzyme assay.

Sequence of human PDE2 (O00408 whole entry): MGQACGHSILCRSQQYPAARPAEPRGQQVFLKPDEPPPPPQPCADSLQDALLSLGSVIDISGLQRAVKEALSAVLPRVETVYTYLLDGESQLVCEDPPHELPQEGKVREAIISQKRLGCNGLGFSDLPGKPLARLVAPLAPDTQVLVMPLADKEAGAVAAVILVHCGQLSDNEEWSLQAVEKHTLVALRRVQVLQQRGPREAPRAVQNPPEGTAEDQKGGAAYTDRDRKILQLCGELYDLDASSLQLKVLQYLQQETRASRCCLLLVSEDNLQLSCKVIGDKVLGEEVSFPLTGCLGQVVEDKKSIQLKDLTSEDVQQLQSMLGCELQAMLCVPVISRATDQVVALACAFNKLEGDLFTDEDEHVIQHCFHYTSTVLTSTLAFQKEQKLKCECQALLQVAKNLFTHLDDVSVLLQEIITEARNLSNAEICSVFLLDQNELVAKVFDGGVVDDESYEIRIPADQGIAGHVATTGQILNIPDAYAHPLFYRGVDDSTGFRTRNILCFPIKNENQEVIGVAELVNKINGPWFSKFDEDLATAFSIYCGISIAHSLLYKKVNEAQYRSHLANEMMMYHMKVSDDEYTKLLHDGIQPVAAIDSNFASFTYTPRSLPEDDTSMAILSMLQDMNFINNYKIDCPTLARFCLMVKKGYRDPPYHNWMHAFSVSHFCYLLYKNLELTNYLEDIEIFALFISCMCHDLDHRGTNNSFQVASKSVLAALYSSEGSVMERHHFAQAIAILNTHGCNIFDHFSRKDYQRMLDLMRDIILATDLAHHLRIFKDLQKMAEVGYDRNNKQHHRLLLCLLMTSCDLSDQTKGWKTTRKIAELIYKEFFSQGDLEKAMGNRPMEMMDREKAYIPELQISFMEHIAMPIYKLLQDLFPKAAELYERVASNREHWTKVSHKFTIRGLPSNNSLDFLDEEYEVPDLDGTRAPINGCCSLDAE
Sequence of PDE3 from human platelets (Q14432 whole entry): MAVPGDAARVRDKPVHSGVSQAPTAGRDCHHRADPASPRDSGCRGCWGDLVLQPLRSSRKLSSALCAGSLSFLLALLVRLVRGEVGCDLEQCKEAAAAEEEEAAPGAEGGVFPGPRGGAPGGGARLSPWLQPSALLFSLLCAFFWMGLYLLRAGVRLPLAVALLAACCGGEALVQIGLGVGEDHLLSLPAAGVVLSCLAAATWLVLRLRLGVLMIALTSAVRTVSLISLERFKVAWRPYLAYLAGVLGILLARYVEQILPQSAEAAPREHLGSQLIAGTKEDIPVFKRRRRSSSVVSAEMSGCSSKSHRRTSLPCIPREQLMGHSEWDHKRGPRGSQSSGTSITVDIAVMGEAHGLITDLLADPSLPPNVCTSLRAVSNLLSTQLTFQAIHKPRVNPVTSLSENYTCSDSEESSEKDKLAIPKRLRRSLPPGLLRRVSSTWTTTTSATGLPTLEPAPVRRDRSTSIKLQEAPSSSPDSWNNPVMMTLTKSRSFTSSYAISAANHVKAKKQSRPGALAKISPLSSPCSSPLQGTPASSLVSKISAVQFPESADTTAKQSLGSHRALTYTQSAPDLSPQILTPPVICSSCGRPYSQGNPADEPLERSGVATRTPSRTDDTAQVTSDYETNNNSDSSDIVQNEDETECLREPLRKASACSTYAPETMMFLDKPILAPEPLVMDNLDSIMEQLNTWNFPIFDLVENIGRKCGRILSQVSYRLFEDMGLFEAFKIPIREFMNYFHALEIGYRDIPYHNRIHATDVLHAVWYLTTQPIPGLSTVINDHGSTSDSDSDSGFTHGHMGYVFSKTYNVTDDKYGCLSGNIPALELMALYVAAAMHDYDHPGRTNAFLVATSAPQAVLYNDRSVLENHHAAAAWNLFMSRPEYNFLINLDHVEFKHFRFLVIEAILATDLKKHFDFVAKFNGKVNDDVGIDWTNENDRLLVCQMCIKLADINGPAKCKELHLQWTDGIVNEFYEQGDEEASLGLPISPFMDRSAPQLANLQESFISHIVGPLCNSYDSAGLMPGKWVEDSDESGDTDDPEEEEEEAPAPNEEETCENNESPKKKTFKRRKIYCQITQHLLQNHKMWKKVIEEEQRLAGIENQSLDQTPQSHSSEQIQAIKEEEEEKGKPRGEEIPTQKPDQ
Sequence of PDE7 purified from Hut78 human T cells (Q13946 whole entry): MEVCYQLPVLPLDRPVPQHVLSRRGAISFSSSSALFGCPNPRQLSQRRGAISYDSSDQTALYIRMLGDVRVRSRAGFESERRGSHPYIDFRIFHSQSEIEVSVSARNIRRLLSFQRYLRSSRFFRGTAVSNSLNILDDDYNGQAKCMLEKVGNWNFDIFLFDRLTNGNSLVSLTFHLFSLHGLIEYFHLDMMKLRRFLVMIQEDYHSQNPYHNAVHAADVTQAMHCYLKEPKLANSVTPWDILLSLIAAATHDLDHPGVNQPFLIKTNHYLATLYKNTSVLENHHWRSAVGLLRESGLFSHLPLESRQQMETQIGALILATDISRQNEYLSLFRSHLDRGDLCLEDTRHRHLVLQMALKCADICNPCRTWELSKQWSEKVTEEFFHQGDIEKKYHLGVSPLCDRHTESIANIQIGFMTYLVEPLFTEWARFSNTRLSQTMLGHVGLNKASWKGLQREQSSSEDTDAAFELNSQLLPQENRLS

With `CCOc1cc(C(CS(C)(=O)=O)N2C(=O)c3cccc(NC(C)=O)c3C2=O)ccc1OC` (racemic) [Racemic Compound, 2-[1-(3-Ethoxy-4-methoxyphenyl)-2-methylsulfonylethyl]-4-acetylaminoisoindoline-1,3-dione], the “PDE Specificity Ratio PDE4/PDE3” value in test [1] is recorded as above 670 fold. Further, the “PDE Specificity Ratio PDE4/PDE5” value in test [2] is on record as above 12000 fold. Besides, the “PDE Specificity Ratio PDE4/PDE1” value in test [3] was above 2700 fold. The “PDE Specificity Ratio PDE7 IC50/PDE4 IC50” value in test [4] is listed as 270 fold. Moreover, in test [5], the “PDE Specificity Ratio PDE4/PDE2” value is above 800 fold.
Regarding `CCOc1cc([C@H](CS(C)(=O)=O)N2C(=O)c3cccc(NC(C)=O)c3C2=O)ccc1OC` [Compound B], the “PDE Specificity Ratio PDE4/PDE3” value in test [1] is above 45 fold. The “PDE Specificity Ratio PDE4/PDE5” value in test [2] is listed as above 39000 fold. Besides, the “PDE Specificity Ratio PDE4/PDE1” value in test [3] is above 50 fold. Also, the “PDE Specificity Ratio PDE4/PDE6” value in test [6] is reported as above 250 fold. Further, the “PDE Specificity Ratio PDE4/PDE2” value in test [5] is above 260 fold.
